Assay results: patent publication US10933052B2, “Compositions and methods for the treatment of eye disorders” (Cellix Bio Private Limited, priority 2017, dated 2021)

Experiment: Ocular pharmacokinetic study of CLX-156 formulation, topical administration in each eye
Assay type: in vivo, male New Zealand white rabbits
Settings: rabbit, topical 50 μL in each eye
Experimental: A pharmacokinetics study was conducted on male New Zealand white rabbits to evaluate the ocular pharmacokinetics of CLX-156 (Pilocarpine-(R)-Lipoate) formulation. Animals were topically administered with 50 μL of CLX-156 in each eye, and the aqueous humour and blood samples were collected followed by sacrifice of the animals for collection of lens, cornea and iris region at a pre-determined time.
The aqueous humour and tissue concentration of Pilocarpine and (R)-Lipoic acid were measured at 0.5 h, 1 h, 2 h, 4 h and 8 h in 3 animals/time point/group (as provided in Table 2 and Table 3 hereinbelow). Further, (R)-Lipoic acid concentration was measured in the lens region, and Pilocarpine concentration was measured in iris region of each of the treated animals (as provided in Table 2 and Table 3). All the samples were analyzed using LCMS-MS by a fit for purpose method.

[1] = analyte (R)-Lipoic acid, aqueous humour
[2] = analyte (R)-Lipoic acid, lens region
[3] = analyte Pilocarpine, aqueous humour
[4] = analyte Pilocarpine, iris region

In the case of “5-(((3R,4S)-4-ethyl-5-oxotetrahydro furan-3-yl)methyl)-1-methyl-1H-imidazol-1-ium (R)-5-(1,2-dithiolan-3-yl)pentanoate [CLX-156]”, the “AUClast, (R)-Lipoic acid in aqueous humour” value [1] is reported as 17271 ng·h/mL, the “Cmax, concentration of (R)-Lipoic acid in aqueous humour” value [1] is reported as 21067 ng/mL and the “Tmax, (R)-Lipoic acid in aqueous humour” value [1] is reported as 30 min. The “AUClast, (R)-Lipoic acid in lens region” value [2] was 0.364 µg·h/g, the “Tmax, (R)-Lipoic acid in lens region” value [2] was 30 min and the “AUClast, Pilocarpine in aqueous humour” value [3] was 6359 ng·h/mL. The “Cmax, concentration of Pilocarpine in aqueous humour” value [3] was 6480 ng/mL, the “Tmax, Pilocarpine in aqueous humour” value [3] was 30 min and the “time up to which pilocarpine was detectable in aqueous humour” value [3] was “up to 4 h”. For the same substance, the “AUClast, Pilocarpine in iris region” value [4] was 1.491 µg·h/g, the “Tmax, Pilocarpine in iris region” value [4] was 30 min and the “time up to which pilocarpine was detectable in iris region” value [4] was “up to 2 h”.
